Measured values reported in patent US10973912B2, “Treatment for myopathy” (Children's Medical Center Corporation, priority 2015, dated 2021).

Tested on: ryr1b skeletal muscles
Test: Tetanic force per cross-sectional area in larvae at 5 dpf
Format: in vivo, zebrafish (Danio rerio)
Experimental: Tetanic forces were measured following stimulation with 9 biphasic, 200 μs square-wave pulses at 300 Hz (WT-DMSO: 45.6±4.2 kPa, n=5; WT-NIF: 52.8±4.1 kPa, n=5; ryr1b-DMSO: 11.4±1.3 kPa, n=7; ryr1b-NIF: 25.4±4.0 kPa, n=7). Significance was determined by a one-way ANOVA (F=29.61, P<0.0001), followed by pairwise Tukey's HSD post hoc tests. […] Non-linear regression data of curves were not statistically different, as determined by an extra sum-of-squares F test (P=1.0).
Ryr1b mutants display weaker muscle contractions than wild-type clutchmates as early as 2 dpf^30. To investigate whether […] affects contractile strength in zebrafish, ryr1b mutants and unaffected controls were treated with the compound for several days. At 5 dpf, electrophysiological studies were performed with the help of Dr. Jeffrey Widrick.

O=C(N/N=C/c1ccc([N+](=O)[O-])o1)c1ccc(O)cc1 [Nifuroxazide]
tetanic forces in treated mutants: restored to wild-type levels | tetanic force per cross-sectional area, ryr1b mutants (ryr1b, n=7, 9 biphasic 200 μs pulses at 300 Hz, ryr1b-DMSO 11.4±1.3, WT-DMSO 45.6±4.2): 25.4±4.0 kPa
